The text below walks through data of patent US11597724B2, “Herbicidally active 3-phenylisoxazoline-5-carboxamides of tetrahydro and dihydrofuran carboxylic acids and esters” (Bayer Aktiengesellschaft, priority 2017, dated 2023).

Common to all, as to format: in vivo
The subject of assay [1] is Polygonum convolvulus. Briefly: Pre-emergence herbicidal activity against POLCO. As to conditions: Fallopia convolvulus, 504 h, dosage 80 g/ha. An excerpt: 1. Pre-Emergence Herbicidal Action and Crop Plant Compatibility Seeds of monocotyledonous and dicotyledonous weed plants and crop plants are placed in plastic or wood fiber pots and covered with soil. The compounds of the invention, formulated in the form of wettable powders (WP) or as emulsion concentrates (EC), are then applied onto the surface of the covering soil as aqueous suspension or emulsion with addition of 0.5% additive at a water application rate of 600 l/ha (converted). After the treatment, the pots are placed in a greenhouse and kept under good growth conditions for the trial plants. After about 3 weeks, the effect of the preparations is scored visually in comparison with untreated controls as percentages. For example, 100% activity=the plants have died, 0% activity=like control plants. POLCO: Polygonum convolvulus SETVI: Setaria viridis

Assay [2] relates to Alopecurus myosuroides. Briefly: Post-emergence herbicidal activity against ALOMY. To be noted: Alopecurus myosuroides, 504 h, dosage 320 g/ha, rated about 3 weeks after treatment. The procedure, abridged:
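Greenhouse-grown plants treated at one-leaf stage, 2 to 3 weeks after sowing, with WP or EC formulations sprayed as aqueous suspension/emulsion plus 0.5% additive at 600 l/ha. Activity rated visually about 3 weeks later versus untreated controls (100% = plants dead, 0% = like control).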

The subject of assay [3] is Veronica persica. Nature of the assay: Post-emergence herbicidal activity against VERPE. As to conditions: Veronica persica, 504 h, dosage 320 g/ha. Put shortly: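 Greenhouse plants treated at one-leaf stage, 2–3 weeks after sowing, by spraying WP or EC formulations with 0.5% additive at 600 l/ha water. Visual rating about 3 weeks later versus untreated controls (100% = plants dead, 0% = like controls).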

The test system of assay [4] is Lolium rigidum. Briefly: Post-emergence herbicidal activity against LOLRI. To be noted: Lolium rigidum, 504 h, dosage 320 g/ha, rated about 3 weeks after treatment. How it is done: LOLRI: Lolium rigidum PHBPU: Pharbitis purpurea 2. Post-Emergence Herbicidal Action and Crop Plant Compatibility Seeds of monocotyledonous and dicotyledonous weeds and crop plants are placed in sandy loam in plastic or wood-fiber pots, covered with soil and cultivated in a greenhouse under controlled growth conditions. 2 to 3 weeks after sowing, the test plants are treated at the one-leaf stage. The compounds of the invention, formulated in the form of wettable powders (WP) or as emulsion concentrates (EC), are then sprayed onto the green parts of the plants as aqueous suspension or emulsion with addition of 0.5% additive at a water application rate of 600 l/ha (converted). After the test plants had been kept in the greenhouse under optimum growth conditions for about 3 weeks, the activity of the preparations is rated visually in comparison to untreated controls. For example, 100% activity=the plants have died, 0% activity=like control plants.

One may read the pest or weed control as the degree to which the test organism was suppressed or injured, in per cent. Lower therefore signals a weak effect. As for `COC(=O)C1=C[C@H](NC(=O)C2(C)CC(c3cccc(F)c3)=NO2)CO1` (stereo partly drawn) [I-39, methyl (3S)-3-[[3-(3-fluorophenyl)-5-methyl-4H-isoxazole-5-carbonyl]amino]-2,3-dihydrofuran-5-carboxylate], in assay [1], the pest or weed control at 80 g/ha stood at 80%. In addition, the figures for the pest or weed control at 320 g/ha in assay [2], in assay [3] and in assay [4] were 100%, 80% and 100%, respectively.

Take `COC(=O)[C@H]1C[C@H](NC(=O)[C@@]2(C)CC(c3cc(F)cc(F)c3)=NO2)CO1` (mixture of isomers) [I-55, methyl trans-4-[[(5R)-3-(3,5-difluorophenyl)-5-methyl-4H-isoxazole-5-carbonyl]amino]tetrahydrofuran-2-carboxylate]: the pest or weed control at 320 g/ha in assay [2], in assay [3] and in assay [4] was 90% in each case.

Turning to `COC(=O)[C@@]1(OC)C[C@@H](NC(=O)C2(C)CC(c3cccc(F)c3)=NO2)CO1` (stereo partly drawn) [I-47, methyl (2R,4R)-4-[[3-(3-fluorophenyl)-5-methyl-4H-isoxazole-5-carbonyl]amino]-2-methoxytetrahydrofuran-2-carboxylate], in assay [1], the pest or weed control at 80 g/ha is 90%. The pest or weed control at 320 g/ha worked out at 100% in assay [2], 80% in assay [3] and 100% in assay [4].

Consider `C=C[C@]1(C(=O)N[C@@H]2CO[C@@H](C(=O)OC)C2)CC(c2cc(F)cc(F)c2)=NO1` (mixture of isomers) [I-56, methyl trans-4-[[(5S)-3-(3,5-difluorophenyl)-5-vinyl-4H-isoxazole-5-carbonyl]amino]tetrahydrofuran-2-carboxylate], for which the pest or weed control at 320 g/ha in assay [2], in assay [3] and in assay [4] was 90% each time.

In turn, `C=CC1(C(=O)N[C@H]2CO[C@@H](C(=O)OC)C2)CC(c2cc(Cl)cc(Cl)c2)=NO1` (relative stereo) [I-03, methyl cis-4-[[3-(3,5-dichlorophenyl)-5-vinyl-4H-isoxazole-5-carbonyl]amino]tetrahydrofuran-2-carboxylate] had a pest or weed control at 80 g/ha in assay [1] of 80%. Moreover, the results for the pest or weed control at 320 g/ha in assay [2] and in assay [3] were 90% and 80%, respectively.

`COC(=O)[C@H]1C[C@@H](NC(=O)C2(C)CC(c3cc(C)cc(Br)c3)=NO2)CO1` (relative stereo) [I-04, methyl cis-4-[[3-(3-bromo-5-methylphenyl)-5-methyl-4H-isoxazole-5-carbonyl]amino]tetrahydrofuran-2-carboxylate] returned a pest or weed control at 80 g/ha in assay [1] of 90%. In addition, the pest or weed control at 320 g/ha in assay [2] was determined as 90%; in assay [3], 80%.

Regarding `C=CC1(C(=O)NC2=C(C(=O)OCC)COC2)CC(c2cc(F)cc(F)c2)=NO1` (stereo not drawn) [I-23, ethyl 4-[[3-(3,5-difluorophenyl)-5-vinyl-4H-isoxazole-5-carbonyl]amino]-2,5-dihydrofuran-3-carboxylate], the pest or weed control at 320 g/ha was found to be 100% in assay [2] and 90% in assay [4].

In assay [1], `C=CC1(C(=O)N[C@H]2CO[C@@H](C(=O)OC)C2)CC(c2cccc(F)c2)=NO1` (relative stereo) [I-07, methyl cis-4-[[3-(3-fluorophenyl)-5-vinyl-4H-isoxazole-5-carbonyl]amino]tetrahydrofuran-2-carboxylate] registered a pest or weed control at 80 g/ha of 80%. Besides, the pest or weed control at 320 g/ha in assay [2] was 90%; in assay [3], 80%.

For `COC(=O)[C@H]1C[C@@H](NC(=O)C2(OC)CC(c3ccccc3)=NO2)CO1` (relative stereo) [I-14, methyl cis-4-[(5-methoxy-3-phenyl-4H-isoxazole-5-carbonyl)amino]tetrahydrofuran-2-carboxylate], the pest or weed control at 320 g/ha in assay [2] came to 100%; in assay [3], 80%.
